Data: publication PMC7008171 (Frontiers in Pharmacology, 2020)
Where “and” joins values, the source holds several entries; their conditions need not be identical. Identical values can stand only once. Marks after values point to notes of the source that are not given here.

Columns and labels:
[1] = set-up: method as in Mannens et al., 1994; conditions: dog plasma; ref Mannens et al., 1994; cited from earlier work
[2] = ref PMDA label, 2018; cited from earlier work
in vivo = conditions: both, Beagle, dog, plasma, 1 mg
Experimental: (§1) The dogs were kept still for 2 min. A dose of 1 mg/body was administrated.
(§2) Four healthy Beagle dogs (male:female, 1:1) weighting 9.04 ± 1.88 kg (Certificate No. 20150005001131), purchased from Shanghai Jambo Biological Technology Co., Ltd (Shanghai, China), were used in this study. The study protocol was reviewed and approved by the Animal Management and Ethic Committee of the China State Institute of Pharmaceutical Industry. Dogs were housed individually in stainless steel cages. Tap water was given ad-libitum and food was provided once daily. Dogs were fasted for 12 h before drug administration. Blank blood samples were withdrawn prior to the administration of the drugs. Subsequently, blood samples were taken from forelimb vein at 0.167, 0.333, 0.5, 0.75, 1.0, 1.5, 2.0, 3.0, 4.0, 6.0, 8.0, 12, 24, and 32 h into heparin sodium-containing centrifuge tubes which were then centrifuged for 5 min at 3,000 rpm. The supernatant was collected and stored at -20 °C in the refrigerator until further analysis.
(§3) The main pharmacokinetic parameters of maximum plasma concentration (Cmax), peak time (Tmax), area under the concentration-time curve from 0 h to the time of last measurable concentration (AUC0-t), and AUC from 0 to infinity (AUC0-∞), mean residue time (MRT), apparent volume of distribution (Vd), elimination half-life (t1/2), and in vivo clearance (CL) were calculated by non-compartmental approach using the software of DAS 2.0 ([Cheng et al., 2016]).
(§4) Calibration curves were constructed in the concentration range of 0.2–200 ng/ml with a lower limit of quantification (LLOQ) of 0.2 ng/ml. […] The HPLC system (Shimadzu Co. Ltd, Kyoto, Japan) equipped with a triple quadruple mass spectrometer (Shimadzu Co. Ltd, Kyoto, Japan) operating with ESI in the positive mode was used for the quantification of the analytes. Mobile phases consisted of methanol and water (35:65, v/v), both containing 0.05% formic acid and 5 mM ammonium formate. The flow rate was set at 0.3 ml/min. Ten μl of the aliquot was injected into the Inspire C18 column (2.1 mm×50 mm, 3 μm, Dikma Technologies Inc, Beijing, China) at a column oven of 40 °C. […] Direct protein precipitation using acetonitrile was used for the extraction of analytes from dog plasma.

[3] = Pharmacokinetic study in Beagle dogs (i.v., i.g., supralingual, sublingual; crossover, single dose);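 further: Single-dose crossover across four periods with one-week washout, plasma drug levels quantified by LC-MS/MS in positive ESI mode, lower quantification limit 0.2 ng/mL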; conditions: three-compartmental fit of i.v. profile in Beagle dogs
Experimental: as §1, §2, §3, §4

[4] = taken orally; ref Huang et al., 1993; de Leon et al., 2010; Shimizu et al., 2017; cited from earlier work
[5] = sublingual tablets (Intermezzo), OCCAT model; ref Xia et al., 2015; cited from earlier work

Q: What does the source list for `Cc1nc2n(c(=O)c1CCN1CCC(c3noc4cc(F)ccc34)CC1)CCCC2` [risperidone]?
A: fu (plasma unbound fraction) [1]: 0.083 ^c; Solubility (pH 6.8) [2]: 0.9 ^d mg/ml; AUC(0-inf) (in vivo): 102 ± 43.3 ng·h/mL; AUC(0-t) (in vivo): 98.9 ± 40.9 ng·h/mL; Cmax (in vivo): 52.6 ± 10.6 ng/mL; MRT inf (in vivo): 1.93 ± 0.52 h; MRT last (in vivo): 1.78 ± 0.41 h; Tmax (in vivo): 0.67 ± 0.38 h; Vd (in vivo): 17.8 ± 3.06 L; clearance (in vivo): 184 mL/min; half-life (in vivo): 1.21 ± 0.4 h; AUC(0-inf) (in vivo; iv): 179 ± 115 ng·h/mL; AUC(0-t) (in vivo; iv): 177 ± 113 ng·h/mL; Cmax (in vivo; iv): 215 ± 56.4 ng/mL; MRT inf (in vivo; iv): 1.4 ± 0.89 h; MRT last (in vivo; iv): 1.3 ± 0.8 h; Tmax (in vivo; iv): 0.03 h; Vd (in vivo; iv): 12.8 L and 0.314 L/kg; clearance (in vivo; iv): 128 mL/min and 9.84 mL/min/kg; half-life (in vivo; iv): 1.37 ± 0.82 h; AUC(0-inf) (in vivo; other: supralingual): 102 ± 57.4 ng·h/mL; AUC(0-t) (in vivo; other: supralingual): 97.3 ± 54.4 ng·h/mL; Cmax (in vivo; other: supralingual): 59.4 ± 7.32 ng/mL; MRT inf (in vivo; other: supralingual): 1.73 ± 0.82 h; MRT last (in vivo; other: supralingual): 1.5 ± 0.71 h; Tmax (in vivo; other: supralingual): 0.62 ± 0.58 h; Vd (in vivo; other: supralingual): 17.2 ± 7.7 L; clearance (in vivo; other: supralingual): 199 mL/min; half-life (in vivo; other: supralingual): 1.13 ± 0.5 h; AUC(0-inf) (in vivo; po): 91.3 ± 48.6 ng·h/mL; AUC(0-t) (in vivo; po): 90 ± 48.7 ng·h/mL; Cmax (in vivo; po): 45.9 ± 7.6 ng/mL; MRT inf (in vivo; po): 1.79 ± 0.74 h; MRT last (in vivo; po): 1.71 ± 0.75 h; Tmax (in vivo; po): 0.71 ± 0.53 h; half-life (in vivo; po): 0.92 ± 0.41 h; K12 [3]: 16.352 ^e h^-1; K13 [3]: 0.4625 ^e h^-1; K21 [3]: 9.007 ^e h^-1; K31 [3]: 0.4103 ^e h^-1; V2 (volume of distribution of the first peripheral compartment) [3]: 0.5699 ^e L/kg; V3 (volume of distribution of the second peripheral compartment) [3]: 0.3538 ^e L/kg; Oral bioavailability [4]: about 70%

Q: For `Cc1ccc(-c2nc3ccc(C)cn3c2CC(=O)N(C)C)cc1` [zolpidem], which “Estimated absorption via the oral mucosa” value [5] is on record?
A: about 18%
